Reference: patent publication US12090149B2, “SMAD3 inhibitors” (Moexa Pharmaceuticals Limited, priority 2018, dated 2024)
Values joined by “and” are separate entries in the source; they are usually repeats but may differ in a detail not shown here. Equal entries are not always repeated. “Also recorded” adds a separate entry of the source.

Legend:
[1] = test system: TGFβ/Smad Signaling Pathway SBE Reporter—HEK293 Cell Line; assay: TGFβ/Smad SBE reporter luciferase assay in HEK293 cells stimulated with human TGFβ1; assay type: cell-based; conditions: 4 h compound, then TGFβ1 20 ng/ml ~18 h
Procedure: • 1. TGFβ/Smad Signaling Pathway SBE Reporter—HEK293 Cell Line BPS Bioscience Catalog #: 60653 • 2. Human TGFβ1 (BPS Bioscience #90900-1) • 3. SIS3 (Sigma #S0447): inhibitor of TGFβ pathway. Prepare stock soln. in DMSO • 4. Growth medium: MEM medium (Invitrogen #11095-080)+10% FBS (ATCC #30-2020)+1% non-essential amino acids (Lonza #13-114E)+1 mM Na pyruvate (Lonza #13-115E)+1% Penicillin/Streptomycin (ATCC #30-2300)+400 μg/ml of Geneticin (Invitrogen #11811-031) • 5. Assay medium: MEM medium+0.5% FBS+1% non-essential amino acids+1 mM Na pyruvate+1% Pen/Strep • 6. 96-well tissue culture-treated white clear-bottom assay plate (Corning #3610) • 7. ONE-Step™ Luciferase Assay System (BPS, Cat. #60690)
SBE reporter-HEK293 cells were harvested from culture in growth medium and seeded at a density of ˜10,000 cells per well into a white clear-bottom 96-well microplate in 100 μl of assay medium. The plate containing cells was incubated at 37° C. in a CO2 incubator. 24 h after seeding, cells were washed with 100 μL of assay buffer and treated with three-fold serial dilution of compounds in 50 μl assay medium. […]
After 18 h of incubation, Luciferase assay was performed using ONE-Step™ Luciferase Assay System according to the protocol provided: 50 μl of ONE-Step™ Luciferase reagent was added per well and shook at room temperature for […]. Luminescence was measured using a luminometer.

B16-F10 syngeneic model = assay: Subcutaneous B16-F10 syngeneic model, tumor growth; assay type: in vivo, C57BL/6 mice
Procedure: In order to evaluate the in vivo efficacy of SIS3 and novel compounds of the present invention, a study has been conducted in treatment of the subcutaneous B16-F10 syngeneic models.
• Animal species and strain: C57BL/6 mice • History of treatment: Naive • Sex, age and weight: Female, 6-8 weeks • Breeder/supplier: Shanghai SLAC Laboratory Animal Co. Ltd • Adaptation: At least 7 days • Room: SPF Room • Room temperature: 20-26° C. • Room relative humidity: 40-70% • Light cycle: Fluorescent light for 12-hour light (08:00-20:00) and 12-hour dark • Animal hosting: 2-5 mice/cage each group • Food: Free access to food • Water: Free access to water (municipal tap water filtered by reverse osmosis or high-pressure sterilizer)
B16-F10 cell was maintained at 37° C. under 5% CO2 in DMEM medium supplemented with 10% FBS and were subsequently cultured within 10 passages before inoculated into the mice.
B16-F10 cells (3×10^5 in 100 μL of serum-free medium) were inoculated to each of C57BL/6 mice via s.c. under anesthesia by 3-4% isoflurane. Each group contains 15 mice.
When average tumor volume reached 35-60 mm^3, 15 mice were randomized into group 6. The day of inoculation was denoted as day 0.
Tumor dimensions were measured on Day 4, 5, 6, 8, 11, 13, 15 and 18, after inoculation in 2 dimensions with calipers.
When required, tumor volume was measured daily. The tumor volume (V) was calculated as follows: V=(length×width^2)/2.
The individual relative tumor volume (RTV) was calculated as follows: RTV=Vt/V0, where Vt was the volume on each day, and V0 was the volume at the beginning of the treatment.
Tumor growth inhibition (TGI), TGI=(1−(Ti−T0)/(Ci−C0))×100%; Ti and Ci as the mean tumor volumes of the treatment and control groups on the measurement day; T0 and C0 as the mean tumor volumes of the treatment and control groups on day 0
Results were expressed as mean±S.E.M. Comparisons between two groups were made by Dunnett's multi-comparison test, p<0.05 were considered as significant.

[2] = single agent, i.p. QD*3 weeks, SIS3 10 and 30 mg/kg, MO-00005 10, 30 and 100 mg/kg, vs vehicle

`COc1cc2c(cc1OC)CN(C(=O)/C=C/c1c(-c3ccccc3)n(C)c3ncccc13)CC2.Cl` [SIS3, reference compound] was tested, and the IC50 [1] was 2960 nM, the “Tumor Sizes (mm3) Mean” value (B16-F10 syngeneic model; 10 mg/kg q.d. * 3W i.p., Day 4 (estimated value)) was 0.87 mm3 and the “Relative tumor volume Mean” value (B16-F10 syngeneic model; 10 mg/kg q.d. * 3W i.p., Day 4, RTV=Vt/V0) was 0.04. The “Tumor Sizes (mm3) Mean” value (B16-F10 syngeneic model; 10 mg/kg q.d. * 3W i.p., Day 5 (estimated value)) was 1.10 mm3 and 1.1 mm3, the “Relative tumor volume Mean” value (B16-F10 syngeneic model; 10 mg/kg q.d. * 3W i.p., Day 5, RTV=Vt/V0) was 0.05 and the “Tumor Sizes (mm3) Mean” value (B16-F10 syngeneic model; 10 mg/kg q.d. * 3W i.p., Day 6 (estimated value)) was 3.36 mm3. For the same compound, the “Relative tumor volume Mean” value (B16-F10 syngeneic model; 10 mg/kg q.d. * 3W i.p., Day 6, RTV=Vt/V0) was 0.12, the “Tumor Sizes (mm3) Mean” value (B16-F10 syngeneic model; 10 mg/kg q.d. * 3W i.p., Day 8) was 43.65 mm3 and the “Relative tumor volume Mean” value (B16-F10 syngeneic model; 10 mg/kg q.d. * 3W i.p., Day 8, RTV=Vt/V0) was 1.00. The “Tumor Sizes (mm3) Mean” value (B16-F10 syngeneic model; 10 mg/kg q.d. * 3W i.p., Day 11) was 156.77 mm3, the “Relative tumor volume Mean” value (B16-F10 syngeneic model; 10 mg/kg q.d. * 3W i.p., Day 11, RTV=Vt/V0) was 4.07 and the “Tumor growth inhibition (%) TGI” value (B16-F10 syngeneic model; 10 mg/kg q.d. * 3W i.p., Day 11, calculated based on tumor volume of Day 8) was 29%. For the same compound, the “Tumor Sizes (mm3) Mean” value (B16-F10 syngeneic model; 10 mg/kg q.d. * 3W i.p., Day 13) was 443.17 mm3, the “Relative tumor volume Mean” value (B16-F10 syngeneic model; 10 mg/kg q.d. * 3W i.p., Day 13, RTV=Vt/V0) was 12.20 and the “Tumor growth inhibition (%) TGI” value (B16-F10 syngeneic model; 10 mg/kg q.d. * 3W i.p., Day 13, calculated based on tumor volume of Day 8) was 26%. For the same compound, the “Tumor Sizes (mm3) Mean” value (B16-F10 syngeneic model; 10 mg/kg q.d. * 3W i.p., Day 15) was 793.01 mm3, the “Relative tumor volume Mean” value (B16-F10 syngeneic model; 10 mg/kg q.d. * 3W i.p., Day 15, RTV=Vt/V0) was 22.19 and the “Tumor growth inhibition (%) TGI” value (B16-F10 syngeneic model; 10 mg/kg q.d. * 3W i.p., Day 15, calculated based on tumor volume of Day 8) was 25%. For the same compound, the “Tumor Sizes (mm3) Mean” value (B16-F10 syngeneic model; 10 mg/kg q.d. * 3W i.p., Day 18) was 2209.13 mm3, the “Relative tumor volume Mean” value (B16-F10 syngeneic model; 10 mg/kg q.d. * 3W i.p., Day 18, RTV=Vt/V0) was 62.21 and the “Tumor growth inhibition (%) TGI” value (B16-F10 syngeneic model; 10 mg/kg q.d. * 3W i.p., Day 18, calculated based on tumor volume of Day 8) was 21%. The “Tumor Sizes (mm3) Mean” value (B16-F10 syngeneic model; 30 mg/kg q.d. * 3W i.p., Day 4 (estimated value)) was 0.28 mm3, the “Relative tumor volume Mean” value (B16-F10 syngeneic model; 30 mg/kg q.d. * 3W i.p., Day 4, RTV=Vt/V0) was 0.01 and the “Tumor Sizes (mm3) Mean” value (B16-F10 syngeneic model; 30 mg/kg q.d. * 3W i.p., Day 5 (estimated value)) was 0.46 mm3. The “Relative tumor volume Mean” value (B16-F10 syngeneic model; 30 mg/kg q.d. * 3W i.p., Day 5, RTV=Vt/V0) was 0.01, the “Tumor Sizes (mm3) Mean” value (B16-F10 syngeneic model; 30 mg/kg q.d. * 3W i.p., Day 6 (estimated value)) was 3.44 mm3 and the “Relative tumor volume Mean” value (B16-F10 syngeneic model; 30 mg/kg q.d. * 3W i.p., Day 6, RTV=Vt/V0) was 0.12. The “Tumor Sizes (mm3) Mean” value (B16-F10 syngeneic model; 30 mg/kg q.d. * 3W i.p., Day 8) was 49.16 mm3, the “Relative tumor volume Mean” value (B16-F10 syngeneic model; 30 mg/kg q.d. * 3W i.p., Day 8, RTV=Vt/V0) was 1.00 and the “Tumor Sizes (mm3) Mean” value (B16-F10 syngeneic model; 30 mg/kg q.d. * 3W i.p., Day 11) was 163.60 mm3 and 163.6 mm3. For the same compound, the “Relative tumor volume Mean” value (B16-F10 syngeneic model; 30 mg/kg q.d. * 3W i.p., Day 11, RTV=Vt/V0) was 3.98, the “Tumor growth inhibition (%) TGI” value (B16-F10 syngeneic model; 30 mg/kg q.d. * 3W i.p., Day 11, calculated based on tumor volume of Day 8) was 28% and the “Tumor Sizes (mm3) Mean” value (B16-F10 syngeneic model; 30 mg/kg q.d. * 3W i.p., Day 13) was 379.84 mm3. The “Relative tumor volume Mean” value (B16-F10 syngeneic model; 30 mg/kg q.d. * 3W i.p., Day 13, RTV=Vt/V0) was 9.22, the “Tumor Sizes (mm3) Mean” value (B16-F10 syngeneic model; 30 mg/kg q.d. * 3W i.p., Day 15) was 786.37 mm3 and the “Relative tumor volume Mean” value (B16-F10 syngeneic model; 30 mg/kg q.d. * 3W i.p., Day 15, RTV=Vt/V0) was 23.71. For the same compound, the “Tumor Sizes (mm3) Mean” value (B16-F10 syngeneic model; 30 mg/kg q.d. * 3W i.p., Day 18) was 2131.42 mm3, the “Relative tumor volume Mean” value (B16-F10 syngeneic model; 30 mg/kg q.d. * 3W i.p., Day 18, RTV=Vt/V0) was 70.14 and the “anti-tumor activity against the B16-F10 syngeneic model (in words)” value (B16-F10 syngeneic model; [2]) was “anti-tumor response; also recorded: significant anti-tumor activity”. The “efficacy on tumor weight (in words)” value (B16-F10 syngeneic model; [2]) was “significant efficacy on tumor weight”.
